Assay results published in US8932594B2, “Adjuvants and methods of use” (The Scripps Research Institute, priority 2006, dated 2015).

Assays:
CD1d = target: T1, CD1d (Mus musculus, UniProt P11609); assay: Loading of CD1d molecules, native isoelectric focusing (IEF) gel assay; format: binding; conditions: 2 μM CD1d, 20 μM lipid, 1 hour at 37° C., no saposin B
T1 sequence (P11609 19-297 limits assumed): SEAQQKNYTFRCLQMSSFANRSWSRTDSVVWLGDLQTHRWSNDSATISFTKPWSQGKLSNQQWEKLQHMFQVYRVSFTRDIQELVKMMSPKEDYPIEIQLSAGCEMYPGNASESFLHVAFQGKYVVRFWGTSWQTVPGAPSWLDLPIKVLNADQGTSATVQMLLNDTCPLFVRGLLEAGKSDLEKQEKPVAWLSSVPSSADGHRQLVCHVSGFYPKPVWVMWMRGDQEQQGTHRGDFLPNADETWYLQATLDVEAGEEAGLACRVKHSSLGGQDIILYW
T1 sequence (P01887 21-119 partner): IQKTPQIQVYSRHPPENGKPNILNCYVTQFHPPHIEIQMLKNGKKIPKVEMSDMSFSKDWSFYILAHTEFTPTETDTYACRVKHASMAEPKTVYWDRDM
Description: Whether PBS-31 and PBS-32 could be efficiently loaded onto CD1d molecules was tested using a native isoelectric focusing (IEF) gel assay in the presence and absence of saposin B. For comparison, PBS-41 and PBS-46 (sulfo-β-galactosylceramides), PBS-36 and PBS-58 (sulfo-α-glucosylceramides) and PBS-35 and PBS-40 (β-glucosylceramides) were also evaluated in this assay.
Each 5 μl reaction contained 2 μM CD1d, 20 μM lipid and 10 μM saposin B. Reactions were incubated for 1 hour at 37° C. prior to gel loading.
Loaded species are indicated by a star in FIG. 3. The lanes of FIG. 3 were loaded as follows: 1, no lipid; 2, αGalCer; 3, PBS-31; 4, PBS-32; 5, no lipid; 6, iGB3; 7, PBS-40; 8, PBS-41; 9, PBS-35; 10, PBS-46; 11, PBS-58; 12, PBS-25 (positive control).

DN32.D3 cells = assay: DC-free assay: plate-coated murine CD1d, DN32.D3 cells, IL-2 production; format: cell-based; conditions: for requirement of processing by DCs for stimulation of NKT cells: plate-coated murine CD1d, with saposin B, 24 hours, data not shown
Description: To determine whether presentation of PBS-31 and PBS-32 to NKT cells was dependent on processing by DCs, a DC-free assay was used in which murine CD1d was coated on 96 well plates. PBS-31, PBS-32 and control compounds were added at various concentrations in the presence and absence of saposin B. DN32.D3 cells were added and supernatants were harvested after 24 hours and production of IL-2 was measured.

human NKT cell line = assay: Activation of human NKT cell line, IL-4 and IFN-γ ELISA; format: cell-based; conditions: 24 hours incubation with PBLs or matured DCs
Description: The agonistic activity of PBS-31 and PBS-32 was examined for human NKT cells. A human NKT cell line was stimulated with irradiated peripheral blood lymphocytes (PBLs) or in vitro matured DCs in the presence of PBS-31, PBS-32 and control lipid, iGB3. (Mattner et al., Nature 434: 525-529 (2005) incorporated herein by reference in its entirety.) After 24 hours incubation, supernatants were harvested and assayed for the presence of IL-4 and IFN-γ by ELISA.

NKT cells = assay: Cytokine production by stimulated NKT cells (splenocytes), ELISA; format: cell-based; conditions: 24 hours incubation with splenocytes
Description: NKT cells were stimulated with PBS-32 or control compounds presented by plate-bound CD1d, splenocytes or purified mature DCs. Production of IFN-γ, IL-4, IL-10 and GM-CSF was measured by ELISA. […] The control lipids (glucosyl and galactosyl) were negative in the same assays. Cytokine induction was CD1d-dependent because induction was blocked by anti-CD1d antibodies and no cytokine induction was observed when DCs from CD1d^−/− mice were used (data not shown).

splenic DCs = assay: Induction of DC maturation in vivo, FACS of splenic cells; parameters: species or system mice; conditions: for DC phenotype (CD40, CD80, CD86, MHC class II expression): CD11c+/CD8+ and CD11c+/CD8− cells
Description: Mice were injected with α-GalCer, PBS-31 and PBS-32 and DC differentiation was examined in splenic DCs by analyzing cell surface marker expression.
Three mice in each group were injected intravenously with 1 μg lipid or vehicle alone. At 24 hours post-injection, CD1d expression was examined on splenic B cells (B220+), macrophages (CD11b+) and DCs (CD11c+) by FACS analysis using a FACScalibur machine and FlowJo analysis software.
The maturation of DCs was analyzed by measuring expression of CD40, CD80, CD86, and MHC class II on CD11c^+/CD8^+ and CD11c^+/CD8^− cells (FIG. 8). […] PBS-32 and αGalCer reached maximal induction between 0.1 and 1 μg (data not shown).
Induction of DC maturation was unaffected in MyD88^−/− and MyD88^−/−TRIF^−/− knock out animals in which the Toll-like receptor pathway is partially, or totally impaired, respectively (data not shown). The CD1d-dependence was confirmed by injecting CD1d^−/− mice with the lipids.

[1] = test system: CD1d-restricted Vα14 NKT hybridoma cell, DN32.D3; assay: Stimulation of NKT hybridoma DN32.D3 by lipid-pulsed APCs, IL-2 release; format: cell-based, mice; conditions: for presentation by DCs isolated from CD1-TD mice: DCs with disrupted cytoplasmic tail of CD1d, data not shown; for presentation by splenocytes to DN32.D3 (IL-2 release): irradiated splenocytes, 24 hours
Description: Compounds PBS-31, PBS-32, and control lipids were evaluated for their ability to stimulate a canonical CD1d-restricted Vα14 NKT hybridoma cell, DN32.D3 in an assay described by Lantz, et al., J. Exp. Med. 180: 1097-1106 (1994). Irradiated splenocytes were pulsed with decreasing concentrations of the lipids and control compounds, and incubated with DN32.D3 cells for 24 hours. Supernatants were harvested and IL-2 release was measured using a [^3H]-thymidine incorporation assay with an IL-2 dependent cell line as described by Cantu, et al., J. Immunol. 170:4673-4682 (2003).
Similar results were obtained when mature DCs were used as the APCs (data not shown). […] Therefore, presentation of PBS-31 and PBS-32 and concomitant stimulation of NKT cells is dependent on lysosomal targeting of CD1d.

[2] = test system: murine Vα14 NKT cell line; assay: Lipid-loaded CD1d tetramer staining of NKT cell line, FACS; format: binding; conditions: lipid-loaded CD1d tetramers; data not shown
Description: PBS-32-loaded CD1d tetramers, as well as control αGalCer tetramers, were prepared as described in Benlagha et al., J. Exp. Med. 191: 1895-1903 (2000) incorporated herein by reference in its entirety. The resulting tetramers were used to stain a murine Vα14 NKT cell line. After washing, the cells were analyzed on a FACSCalibur (BD Biosciences) using FlowJo software.

C57BI/6 mice = assay: Serum cytokines after intravenous injection, ELISA; format: in vivo; conditions: 1 μg intravenous
Description: In vivo, following intravenous injection of 1 μg of positive control compound, αGalCer, or PBS-32, IFN-γ production in the serum of C57BI/6 mice was measured by ELISA and was very similar for both compounds (2500 pg/ml and 1500 pg/ml at 24 hours, respectively). IL-4 was undetectable following PBS-32 injection. […] At eight hours post-injection, PBS-32 induced 600 pg/ml IFN-γ.

[3] = test system: ovalbumin-specific CD8+ T cell and IgG responses; assay: Adjuvant capability with ovalbumin antigen; format: in vivo, mice; conditions: for H-2Kb/ova257-264 tetramer positive cells in the CD8+ T cell pool: ovalbumin plus 1 μg lipid intravenous, peripheral blood, day 7 post-injection; for IgG anti-ovalbumin response: ovalbumin plus lipid, ELISA, compared to control group
Description: The potential adjuvanticity of PBS-31 and PBS-32 combined with a nominal protein antigen, ovalbumin, was conducted following a protocol similar to that of Fujii et al., J. Exp. Med. 198: 267-279 (2003) and Hermans et al., J. Immunol. 171: 5140-5147 (2003), which are incorporated herein by reference in their entireties. Ovalbumin was injected intravenously either alone or in combination with 1 μg of PBS-31, PBS-32 or PBS-57. […] In the absence of working tetramers to follow MHC class II responses, only CD8+ responses and B cell responses were evaluated.
CD8+ T cell responses were evaluated by enumerating the H-2K^b/ova257-264 tetramer positive cells in peripheral blood at 7 days post-injection and are expressed as the percentage H-2K^b/ova257-264 positive cells in the CD8+ T cell pool. At day 7 post-injection, antigen-specific H-2K^b/ova257-264 tetramer positive cells were increased to about 3% in the PBS-32 injected group whereas they expanded to almost 6% in the PBS-57 treated group (FIG. 9A). […] These strong IgG responses may indirectly reflect a significant boost of the ovalbumin-specific CD4+T helper compartment as well.
When CD1d^−/− mice were injected following the same protocol, no increase in either anti-ovalbumin IgG or in the anti-ovalbumin CD8+ T cells were noted (data not shown).

[4] = test system: lymphocytic choriomeningitis virus (LCMV); format: in vivo, C57BI/6 mice; conditions: 1 μg intravenous before 10^6 PFU LCMVArm, day 8 post-infection, intracellular IFN-γ

## CCCCCCCCCCCCCC[C@@H](O)[C@@H](O)[C@H](CO[C@H]1O[C@H](CO)[C@H](O)[C@H](O)[C@H]1O)NC(=O)CCCCCCC [PBS-25]
CD1d
  loading of CD1d in the absence of saposin B: marginally loaded in the absence of saposin B

## CCCCCCCCCCCCCCCCCCCCCCCCCC(=O)NC(COC1OC(CO)C(O)C(OS(=O)(=O)O)C1O)C(O)C(O)CCCCCCCCCCCCCC (stereo not drawn) [PBS-31]
DN32.D3 cells
  requirement of processing by DCs for stimulation of NKT cells: does not require processing by DCs
Human NKT cell line
  IFN-γ secretion: significantly less
  IL-4 secretion: almost equivalent amounts
NKT cells
  GM-CSF secretion: induced only GM-CSF
  IFN-γ secretion: induced only GM-CSF
  IL-4 secretion: induced only GM-CSF
  IL-10 secretion: induced only GM-CSF
Splenic DCs; 1 μg intravenous, 24 hours
  DC maturation effect relative to the other lipids: less pronounced effect
  DC phenotype (CD40, CD80, CD86, MHC class II expression): mature phenotype
Splenic DCs; doses up to 50 μg per mouse, data not shown
  lesser potency on DC maturation at increased doses: could not be overcome
[1]
  presentation by DCs isolated from CD1-TD mice: inefficient at presenting
  presentation by splenocytes to DN32.D3 (IL-2 release): efficiently presented

## CCCCCCCCCCCCC/C=C/[C@@H](O)[C@H](CO[C@@H]1O[C@H](CO)[C@@H](O)[C@H](OS(=O)(=O)O)[C@H]1O)NC(=O)CCCCCCCCCCCCCCCCCCCCCCCCC [PBS-32, sulfoglucosylceramide]
DN32.D3 cells
  relative potency in IL-2 production: consistently more potent than phytoceramide PBS-31
  requirement of processing by DCs for stimulation of NKT cells: does not require processing by DCs
[2]
  tetramer staining intensity: less intense than for CD1d-αGalCer tetramers but homogenous
C57BI/6 mice
  IL-4 in serum: undetectable
  timing of IFN-γ production: earlier IFN-γ production than α-GalCer
C57BI/6 mice; at 24 hours
  IFN-γ production in the serum: 1500 pg/mL
C57BI/6 mice; eight hours post-injection
  IFN-γ production in the serum: 600 pg/mL
Human NKT cell line
  IFN-γ secretion: able to induce
  IL-4 secretion: almost equivalent amounts
[3]; in combination with ovalbumin
  adjuvant activity with purified protein antigen: had adjuvant activity
[3]
  H-2Kb/ova257-264 tetramer positive cells in the CD8+ T cell pool: about 3%
  IgG anti-ovalbumin response: dramatically boosted
NKT cells
  GM-CSF secretion: induced secretion
  IFN-γ secretion: induced secretion
  IL-4 secretion: induced secretion
  IL-10 secretion: not IL-10
Splenic DCs; 1 μg intravenous, 24 hours
  DC phenotype (CD40, CD80, CD86, MHC class II expression): mature phenotype
[1]
  presentation by DCs isolated from CD1-TD mice: inefficient at presenting
  presentation by splenocytes to DN32.D3 (IL-2 release): efficiently presented
[4]
  anti-LCMV CD4+ T cell response (GP61, NP309): significant increase
  anti-LCMV CD8+ T cell response (GP33, NP396, GP276): did equally well

## CCCCCCCCCCCCCCCCCCCCCCCCCC(=O)NC(COC1OC(CO)C(O)C(OS(=O)(=O)O)C1O)C(O)C(O)CCCCCCCCCCCCCC (stereo not drawn) [PBS-36]
CD1d
  loading of CD1d in the absence of saposin B: loaded onto CD1d in the absence of saposin B

## CCCCCCCC/C=C\CCCCCCCCCCCCCC(=O)N[C@@H](CO[C@H]1O[C@H](CNC(C)=O)[C@H](O)[C@H](O)[C@H]1O)[C@H](O)[C@H](O)CCCCCCCCCCCCCC [PBS-57, reference compound]
[3]
  H-2Kb/ova257-264 tetramer positive cells in the CD8+ T cell pool: ~6%
  IgG anti-ovalbumin response: dramatically boosted

## CCCCCCCCCCCCC/C=C/[C@@H](O)[C@H](CO[C@H]1O[C@H](CO)[C@@H](O)[C@H](OS(=O)(=O)O)[C@H]1O)NC(=O)CCCCCCCCCCCCCCCCCCCCCCCCC [PBS-58]
CD1d
  loading of CD1d in the absence of saposin B: marginally loaded in the absence of saposin B

## isoglobotrihexosylceramide [iGB3, reference compound]
Human NKT cell line
  IL-4 secretion: almost equivalent amounts
